Data as given in publication PMC8999917, “Structure–Activity Relationship of Synthetic Ginkgolic Acid Analogs for Treating Type 2 Diabetes by PTPN9 Inhibition” (International Journal of Molecular Sciences, 2022).

Key:
[1] = biological target: T1, DUSP9 (Homo sapiens, UniProt Q99956); experiment: DUSP9 enzyme inhibition with DiFMUP substrate; type: biochemical; conditions: DiFMUP 90 µM, DUSP9 200 nM; NA: no activity
T1 construct: made in house; host or cells: Escherichia coli Rosetta (DE3)
T1 sequence (Q99956 1-384): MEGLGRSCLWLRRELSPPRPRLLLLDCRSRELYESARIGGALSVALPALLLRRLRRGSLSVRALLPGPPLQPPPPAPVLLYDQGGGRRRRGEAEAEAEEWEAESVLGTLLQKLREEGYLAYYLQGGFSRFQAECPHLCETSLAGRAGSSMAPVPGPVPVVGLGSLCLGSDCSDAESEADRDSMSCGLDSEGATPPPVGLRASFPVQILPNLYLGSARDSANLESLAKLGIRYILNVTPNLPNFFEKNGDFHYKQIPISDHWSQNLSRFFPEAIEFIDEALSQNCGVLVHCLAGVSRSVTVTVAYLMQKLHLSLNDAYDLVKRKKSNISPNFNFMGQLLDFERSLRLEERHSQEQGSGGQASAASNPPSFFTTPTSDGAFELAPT
Description: (§1) The purification and kinetic analyses of PTPN9 and DUSP9 (Ser277–581) were performed following methods described in the literature, with slight modifications. PAGE analysis data and enzyme kinetic constants are presented in Figure S1 and Table S1, respectively. Enzyme activity in the presence or absence of the compounds was measured using DiFMUP, a representative PTP fluorogenic substrate. First, the inhibitory effects of compounds 1–3 were evaluated using 50 µM PTPN9 and 20 µM DUSP9. There was an increase in the inhibitory activity of compound 1 for both enzymes as the number of CH2 units increased from 9 to 14 (Figure 2A,B).
(§2) Next, the IC50 values of the compounds, which induce a 50% inhibition of DiFMUP hydrolytic enzyme activity, were determined (Table 1). The IC50 values were determined from the dose–response enzyme inhibition curves of each compound. The dose–response curves for compounds 1e and 1f against PTPN9 and DUSP9, respectively, are presented in Figure 2C,D. Dose–response curves were also obtained for the other compounds (Figures S2 and S3).
(§3) The methods employed for PTP overexpression and purification have been described in a previous study. In brief, human PTPN9 and DUSP9 were cloned into a pET28a vector (Merk Millipore, Darmstadt, Germany) containing a hexahistidine (His6) tag or a maltose-binding protein (MBP) tag in its N-terminus (see Supplementary Materials). Recombinant genes were separately transformed into Escherichia coli Rosetta (DE3) (Merk Millipore, Darmstadt, Germany), and the overexpression of each gene was induced via the addition of 0.1 mM IPTG (Ducherfa Biochemie, Haarlem, RV, USA). After 16 h of incubation at 18 °C, cell pellets were obtained via centrifugation (3570× g at 4 °C for 15 min), resuspended in lysis buffer (50 mM Tris, pH: 7.5, 500 mM NaCl, 5% glycerol, 0.025% 2-mercaptoethanol, and 1 mM phenyl-methylsulfonyl fluoride (PMSF)), and lysed by ultrasonication. Subsequently, cell lysates were centrifuged at 29,820× g for 30 min at 4 °C; then, the supernatant was collected and incubated with a cobalt affinity resin (TALON® Metal Affinity Resin, Takara Korea, Seoul, Korea). After 1 h of incubation at 4 °C, the desired proteins were eluted by adding the lysis buffer supplemented with 100 mM imidazole. Samples were stored at –80 °C until use.
(§4) The enzymatic activities of purified PTPN9 and DUSP9 were measured using 6,8-difluoro-4-methylumbelliferyl phosphate (DiFMUP), the most widely used fluorogenic PTP substrate in the literature. To determine KM values, PTPN9 (0.15 nM) and DUSP9 (200 nM) were added to a reaction buffer (20 mM Bis-tris, pH: 7.0, 150 mM NaCl, 2.5 mM dithiothreitol (DTT), and 0.01% Triton X-100) containing DiFMUP (800, 400, 200, 100, 50, 25, 12.5, or 6.25 μM) in a 96-well black plate. The final reaction volume was 100 µL. The fluorescence intensity was continuously monitored for 10 min (Ex/Em = 355/460 nm) on a Victor™ X4 multilabel plate reader (Perkin Elmer, Norwalk, CT, USA). KM values were obtained using Lineweaver–Burk plots analysis.
(§5) To evaluate the enzyme inhibitory effects of GA and its analogs, 10 µl of the enzyme stock solution (1.5 nM PTPN9 and 2 µM DUSP9) in the reaction buffer was added into the mixture of DiFMUP (to a final concentration of 220 µM and 90 µM for PTPN9 and DUSP9, respectively) and each compound (to a final concentration of 50 µM and 20 µM for PTPN9 and DUSP9, respectively) was added to the reaction buffer. Enzyme activity was measured as described above. Half-inhibitory concentration (IC50) values were determined under similar conditions, except for the concentrations of the inhibitors (200, 100, 50, 25, 12.5, 6.25, or 3.125 µM for PTPN9 and 25, 12.5, 6.25, 3.125, 1.563, 0.782, or 0.391 µM for DUSP9). The dose-dependent curve was fitted to the four-parameter logistic regression equation, (y = a + (b – a)/(1 + (x/c)^d), to obtain IC50 values using the Kaleida Graph software Ver. 4.1.3. (Synergy Software Inc, PA, USA).

[2] = test system: Akt phosphorylation in PA-induced insulin-resistant C2C12 cells; experiment: Palmitic acid-induced insulin resistance in C2C12 myotubes (p-Akt); type: cell-based, mouse; conditions: PA (250 µM, 16 h)-treated C2C12, 5 μM compound for 30 min with 100 nM insulin
Description: Since insulin plays an important role in regulating glucose metabolism through the redistribution of GLUT4 from intracellular vesicles to the cell surface, it is important to describe the interaction between 1e and insulin in the Akt pathway. […] Next, we evaluated the protective effects of 1e against PA-induced insulin resistance in C2C12 myotubes. To generate an insulin resistance model, C2C12 myotubes were treated with 250 µM PA in a serum-free medium for 16 h. Akt phosphorylation levels in PA-treated C2C12 cells decreased by 50% compared to levels in normal C2C12 cells (Figure 6C). Furthermore, in the presence of insulin and GA, Akt phosphorylation levels decreased only by 30% compared to levels in normal cells. […] In addition, the GA analogs induced no cytotoxic effects in C2C12 muscle cells (data not shown). […] The expression levels of glucose uptake-related proteins were determined via Western blotting, as previously described. In brief, differentiated 3T3-L1 cells were plated in six-well plates at a 1.5 × 10^4 cells/well density in a final volume of 2 mL. […] Secondary antibodies were added to the membranes at a concentration of 1:2000 for 1 h at room temperature, and immunoreactive bands were detected via ECL (GE Healthcare Korea Co., Ltd., Incheon, Korea). […]

[3] = biological target: T2, PTPN9 (Homo sapiens, UniProt P43378); experiment: PTPN9 enzyme inhibition with DiFMUP substrate; type: biochemical; conditions: DiFMUP 220 µM, PTPN9 0.15 nM; NA: no activity
T2 construct: made in house; host or cells: Escherichia coli Rosetta (DE3)
T2 sequence (P43378 277-581): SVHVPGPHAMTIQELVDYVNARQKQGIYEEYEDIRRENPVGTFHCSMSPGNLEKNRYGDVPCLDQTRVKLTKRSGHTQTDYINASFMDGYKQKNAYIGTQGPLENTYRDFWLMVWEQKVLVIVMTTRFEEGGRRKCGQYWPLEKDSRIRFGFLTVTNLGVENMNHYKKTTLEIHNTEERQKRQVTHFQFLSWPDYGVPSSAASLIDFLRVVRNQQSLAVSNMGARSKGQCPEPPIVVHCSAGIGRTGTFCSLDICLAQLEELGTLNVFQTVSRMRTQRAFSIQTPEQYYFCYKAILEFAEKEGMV
Description: as §1, §2, §3, §4, §5

- IC50 [1]: 3.64 ± 0.11 µM
- IC50 [3]: 21.8 ± 0.45 µM
Structure (SMILES): CCCCCCCCCCCCCc1cccc(O)c1C(=O)O [GA, Ginkgolic acid (C13:0), reference compound]
- decrease of Akt phosphorylation levels compared to normal cells [2]: 30%
